Source: article PMC10439230 (Scientific Reports, 2023)

Assays:
[1] = test system: MOLT-3 (T cell acute lymphoblastic leukemia); assay: Cytotoxic activity assay (XTT); type: cell-based, human
[2] = test system: HL-60 (acute promyelocytic leukemia); assay: Cytotoxic activity assay (XTT); type: cell-based, human
In short: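 Cytotoxicity against the suspended leukemia line HL-60 was measured with the XTT method, using doxorubicin and etoposide as positive controls. Cells (5000–20,000 per well, 75 µL) were allowed 30 min at 37 °C with 5% CO2 and were then treated with compound in an equal volume of medium for 48 h. After 4 h with 75 µL XTT reagent, plates were read at 492 nm with a 690 nm reference. MRC-5 normal lung fibroblasts served as the normal-cell comparison.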

phospho-EGFR (Y845) = assay: Western blot analysis of EGFR phosphorylation; type: cell-based, human; settings: MDA-MB-231 cells, 25–50 µM, 24 h
Experimental: (§1) We further investigated targets of compound 4l on cell survival signaling pathways including EGFR, FAK, Akt, and ERK in MDA-MB-231 cells. After treatment with 4l at concentrations of 25–50 µM for 24 h, activation (phosphorylation) of the signaling pathways was determined by using western blot analysis.
(§2) MDA-MB-231 cells in 6-well culture plates (1 × 10^6 cells/well) were treated with tested compounds for 24 h. Then the cells were harvested and western blot analysis was used to detect alteration of targeted proteins in the treated cells, as previously described. Briefly, the cells in 6-well culture plates were scraped in RIPA cell lysis buffer supplemented with protease/phosphatase inhibitor cocktail before being lysed by sonication. Cell lysates were centrifuged at 12,000×g for 5 min, at 4 °C, to remove cell debris. Total proteins (20 μg) in the cell lysates were separated by SDS-PAGE and blotted to PVDF membranes. The membranes were blocked with 3% (w/v) BSA and incubated overnight at 4 °C with primary antibodies specific to the following proteins: EGFR, phospho-EGFR (Y845), FAK, phospho-FAK (Y397), Akt, phospho-Akt (S473), ERK, and phospho-ERK (T202/Y204). […] Bands of specific proteins were detected by using SuperSignal™ ECL substrates and visualized on X-ray films.

[3] = test system: MDA-MB-231 (triple-negative breast cancer); assay: Cytotoxic activity assay (MTT); type: cell-based, human
In short: (§3)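 Viability after 48 h compound treatment is determined by MTT reduction, with dissolved purple formazan read at 550 nm against a 650 nm reference. Adherent cells are seeded at 5000–20,000 per well and grown 24 h at 37 °C beforehand.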

[4] = test system: HuCCA-1 (cholangiocarcinoma derived from a patient); assay: Cytotoxic activity assay (MTT); type: cell-based, human
In short: as §3

[5] = test system: H69AR (multidrug-resistant small cell lung carcinoma); assay: Cytotoxic activity assay (MTT); type: cell-based, human
In short: as §3

[6] = test system: T-47D (hormone-dependent breast cancer); assay: Cytotoxic activity assay (MTT); type: cell-based, human
In short: as §3

[7] = test system: A549 (lung adenocarcinoma); assay: Cytotoxic activity assay (MTT); type: cell-based, human
In short: as §3

[8] = test system: HeLa (cervical carcinoma); assay: Cytotoxic activity assay (MTT); type: cell-based, human
In short: as §3

[9] = test system: HepG2 (hepatocellular carcinoma); assay: Cytotoxic activity assay (MTT); type: cell-based, human
In short: as §3

phospho-FAK (Y397) = assay: Western blot analysis of FAK phosphorylation; type: cell-based, human; settings: MDA-MB-231 cells, 25–50 µM, 24 h
Experimental: as §1, §2

[10] = test system: MRC-5 normal embryonic lung fibroblast cell line; assay: Cytotoxic activity assay (MTT), normal cells; type: cell-based; settings: Homo sapiens, MRC5, 48 h exposure, read-out: Cell lines, IC50 (μM) MRC-5
In short: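 Cells were plated at densities matched to growth rate (5000–20,000 per well) and allowed to attach for 24 h before compounds were added at predetermined concentrations. After 48 h of exposure, MTT was added for 2.5–4 h and formazan absorbance measured at 550 nm.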

phospho-Akt (S473) = assay: Western blot analysis of Akt phosphorylation; type: cell-based, human; settings: MDA-MB-231 cells, 25–50 µM, 24 h
Experimental: as §1, §2

phospho-ERK (T202/Y204) = assay: Western blot analysis of ERK phosphorylation; type: cell-based, human; settings: MDA-MB-231 cells, 25–50 µM, 24 h
Experimental: as §1, §2

MDA-MB-231 cells [11] = assay: Cell morphology of treated cells (microscopy); type: cell-based, human; settings: MDA-MB-231, 25–50 µM
Experimental: (§4) Mode of cell death induced by compound 4l was explored using MDA-MB-231 cells by observing change in cell morphology and flow cytometric analysis of annexin V/7-AAD double stained cells. […] Accidental cell death necrosis is typically indicated by the immediate production of bubbles on the cell surface after treatment. […] Additionally, vacuole accumulation was not observed in the treated cells until 48 h after treatment (Fig. 3a). Taken together, we hypothesized that 4l-induced cell death in MDA-MB-231 cells was not processed through necrosis or vacuole-presenting regulated cell death such as autophagy.

MDA-MB-231 cells [12] = assay: Cell death analysis, annexin V/7-AAD double staining, flow cytometry; type: cell-based, human
Experimental: as §4
Briefly, MDA-MB-231 cells were seeded into 6-well culture plates at 1 × 10^6 cells/well and left in a CO2 incubator for 24 h. Subsequently, the cells were treated with tested compounds for 24–48 h. DMSO was used as a vehicle and its final concentration was kept at 0.2% (v/v) throughout the study. The treated cells were harvested by trypsinization and subjected to annexin V/7-AAD double staining using Muse® Annexin V & Dead Cell Kit as previously described. The stained cells were analyzed by flow cytometric technique using Muse® Cell Analyzer. Population of annexin V-positive cells was defined as early apoptotic cells, and the population positive for both annexin V and 7-AAD was defined as late apoptotic cells. The sequential events of increasing early and late apoptotic cell populations over time is a characteristic of apoptotic cell death.

[13] = SI = IC50 normal cell (MRC-5)/ IC50 cancer cell

C=C1CC[C@H]2C(C)(C)CCC[C@]2(C)[C@H]1CC/C(C)=C/C(=O)NOC1CCCCO1 (stereo partly drawn) [Compound 4l, (E)-3-Methyl-N-((tetrahydro-2H-pyran-2-yl)oxy)-5-((1S,4aS,8aS)-5,5,8a-trimethyl-2-methylenedecahydronaphthalen-1-yl)pent-2-enamide]
IC50 ([1]; Homo sapiens, MOLT-3, 48 h exposure, XTT, read-out: Cell lines, IC50 (μM) MOLT-3): 26.2 ± 1.76 µM
Selectivity Index (SI) values MOLT-3 [1, 13]: 1.5
IC50 ([2]; Homo sapiens, HL-60, 48 h exposure, XTT, read-out: Cell lines, IC50 (μM) HL-60): 21.4 ± 0.31 µM
Selectivity Index (SI) values HL-60 [2, 13]: 1.9
phosphorylation of EGFR (phospho-EGFR (Y845)): not affected
IC50 ([3]; Homo sapiens, MDA-MB-231, 48 h exposure, MTT, read-out: Cell lines, IC50 (μM) MDA-MB-231): 13.73 ± 0.04 µM
Selectivity Index (SI) values MDA-MB-231 [3, 13]: 2.9
IC50 ([4]; Homo sapiens, HuCC-A1, 48 h exposure, MTT, read-out: Cell lines, IC50 (μM) HuCCA-1): 58.67 ± 0.13 µM
Selectivity Index (SI) values HuCCA-1 [4, 13]: 0.7
IC50 ([5]; Homo sapiens, H69AR, 48 h exposure, MTT, read-out: Cell lines, IC50 (μM) H69AR): 94.6 ± 1.67 µM
Selectivity Index (SI) values H69AR [5, 13]: 0.4
IC50 ([6]; Homo sapiens, T47D, 48 h exposure, MTT, read-out: Cell lines, IC50 (μM) T47-D): 66.1 ± 6.39 µM
Selectivity Index (SI) values T47-D [6, 13]: 0.6
IC50 ([7]; Homo sapiens, A549, 48 h exposure, MTT, read-out: Cell lines, IC50 (μM) A549): 57.7 ± 1.2 µM
Selectivity Index (SI) values A549 [7, 13]: 0.7
IC50 ([8]; Homo sapiens, 48 h exposure, MTT, read-out: Cell lines, IC50 (μM) HeLa): 26.44 ± 0.04 µM
Selectivity Index (SI) values HeLa [8, 13]: 1.5
IC50 ([9]; Homo sapiens, HepG2, 48 h exposure, MTT, read-out: Cell lines, IC50 (μM) HepG2): 73.5 ± 2.15 µM
Selectivity Index (SI) values HepG2 [9, 13]: 0.5
phosphorylation of FAK protein (phospho-FAK (Y397)): selectively reduced
IC50 [10]: 40.3 ± 2.11 µM
phosphorylation of Akt (phospho-Akt (S473)): not affected
phosphorylation of ERK (phospho-ERK (T202/Y204)): not affected
necrosis (immediate formation of bubbles on cell surface) (MDA-MB-231 cells [11]; 24–48 h): did not induce necrosis
vacuole accumulation (MDA-MB-231 cells [11]; until 48 h after treatment): not observed
late apoptotic cell population (MDA-MB-231 cells [12]; MDA-MB-231, 25–50 µM, 48 h, control 5.8%, mean of three experiments (Fig. 3c)): 19.0–26.3%
mode of cell death (MDA-MB-231 cells [12]; MDA-MB-231 cells, 24–48 h treatment): non-apoptotic regulated cell death
